Measured values as given in publication PMC11845477, “Exploring the principles behind antibiotics with limited resistance” (Nature Communications, 2025).
Where a SMILES comes first, the peptide text is derived from it. Bridges are numbered along the chain shown (N, C = ends). [ ]: non-standard residue; d: D form. The star is where a group is joined. X2 = CC[C@H](C)CCCCC(=O)*; Dab = NCC[C@H](N)C(=O)O

What was measured:
[1] = tested on: K. pneumoniae ATCC 10031 (SEN) and K. pneumoniae ATCC 700603 (MDR); test: Adaptive laboratory evolution (ALE), relative MIC of evolved lines; type: cell-based, Klebsiella pneumoniae
Procedure, shortened: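 Ten parallel populations per antibiotic–ancestor pair were evolved in MHB at 37 °C, starting near 50% growth-inhibiting drug. Every 72 h they were passaged into 0.5–2.5× increasing concentrations, keeping the highest-drug well with OD600 > 0.2.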

[2] = tested on: P. aeruginosa ATCC BAA-3107 (SEN) and P. aeruginosa LESB58 (MDR); test: microbe, parasite or virus in culture; type: cell-based, Pseudomonas aeruginosa; settings: for MIC: across three biological replicates
Procedure, shortened: (§1)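 Cells at 5 × 10^5 per mL in cation-adjusted MHB 2 across 11 to 16-step dilutions, 2 replicates. Relative MIC expressed as MICevolved/MICancestor.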

[3] = tested on: A. baumannii ATCC 17978 (SEN) and A. baumannii ATCC BAA-1605 (MDR); test: microbe, parasite or virus in culture; type: cell-based, Acinetobacter baumannii; settings: for MIC: across three biological replicates
Procedure, shortened: as §1

[4] = tested on: K. pneumoniae ATCC 10031 (SEN) and K. pneumoniae ATCC 700603 (MDR); test: microbe, parasite or virus in culture; type: cell-based, Klebsiella pneumoniae; settings: for MIC: across three biological replicates
Procedure, shortened: as §1

[5] = KP-SEN (Klebsiella pneumoniae ATCC 10031), evolved line 2 adapted to the named antibiotic
[6] = KP-SEN (Klebsiella pneumoniae ATCC 10031), evolved line 5 adapted to the named antibiotic
[7] = KP-SEN (Klebsiella pneumoniae ATCC 10031), evolved line 6
[8] = KP-SEN (Klebsiella pneumoniae ATCC 10031), evolved line 6 adapted to the named antibiotic
[9] = KP-SEN (Klebsiella pneumoniae ATCC 10031), evolved line 8
[10] = KP-SEN (Klebsiella pneumoniae ATCC 10031), evolved line 9
[11] = KP-SEN (Klebsiella pneumoniae ATCC 10031), evolved line 10
[12] = KP-SEN, Klebsiella pneumoniae ATCC 10031, evolved line 1 versus ancestor
[13] = KP-SEN, Klebsiella pneumoniae ATCC 10031, evolved line 2 versus ancestor
[14] = KP-SEN, Klebsiella pneumoniae ATCC 10031, evolved line 4 versus ancestor
[15] = KP-SEN, Klebsiella pneumoniae ATCC 10031, evolved line 5 versus ancestor
[16] = KP-SEN, Klebsiella pneumoniae ATCC 10031, evolved line 6 versus ancestor
[17] = KP-SEN, Klebsiella pneumoniae ATCC 10031, evolved line 7 versus ancestor
[18] = KP-SEN, Klebsiella pneumoniae ATCC 10031, evolved line 8 versus ancestor
[19] = KP-SEN, Klebsiella pneumoniae ATCC 10031, evolved line 9 versus ancestor
[20] = KP-SEN, Klebsiella pneumoniae ATCC 10031, evolved line 5
[21] = KP-SEN, Klebsiella pneumoniae ATCC 10031, evolved line 7
[22] = P. aeruginosa ATCC BAA 3107 (PA-SEN), ancestor strain, sheet fig 2a
[23] = PA-SEN, Pseudomonas aeruginosa ATCC BAA 3107, ancestor strain
[24] = Pseudomonas aeruginosa, ATCCBAA3107, Pseudomonas aeruginosa ATCC BAA-3107 (PA-SEN)
[25] = Pseudomonas aeruginosa, ATCCBAA3107, Pseudomonas aeruginosa LESB 58 (PA-MDR)
[26] = AB-SEN, Acinetobacter baumannii ATCC 17978, ancestor strain
[27] = Acinetobacter baumannii ATCC 17978 (AB-SEN), ancestor strain, sheet fig 2a
[28] = Acinetobacter baumannii, Acinetobacter baumannii ATCC 17978 (AB-SEN)
[29] = Acinetobacter baumannii, Acinetobacter baumannii ATCC BAA-1605 (AB-MDR)
[30] = KP-SEN, Klebsiella pneumoniae ATCC 10031, ancestor strain
[31] = Klebsiella pneumoniae ATCC 10031 (KP-SEN), ancestor strain, sheet fig 2a
[32] = Klebsiella pneumoniae, Klebsiella pneumoniae ATCC 10031 (KP-SEN)
[33] = Klebsiella pneumoniae, Klebsiella pneumoniae ATCC 700603 (KP-MDR)
[34] = KP-SEN (Klebsiella pneumoniae ATCC 10031), evolved line 1
[35] = KP-SEN (Klebsiella pneumoniae ATCC 10031), evolved line 2
[36] = KP-SEN (Klebsiella pneumoniae ATCC 10031), evolved line 3
[37] = KP-SEN (Klebsiella pneumoniae ATCC 10031), evolved line 4

## CNC(C)C1CCC(N)C(OC2C(N)CC(N)C(OC3OCC(C)(O)C(NC)C3O)C2O)O1 (centres unmarked) [Gentamicin]
[1]; [5]
  Relative MIC (log10): 2.107
[1]; KP-SEN (Klebsiella pneumoniae ATCC 10031), evolved line 4 adapted to the named antibiotic
  Relative MIC (log10): 1.806
[1]; [6]
  Relative MIC (log10): 1.806
[1]; [7]
  Relative MIC: 64
[1]; [8]
  Relative MIC (log10): 1.806
[1]; [9]
  Relative MIC: 128
[1]; KP-SEN (Klebsiella pneumoniae ATCC 10031), evolved line 8 adapted to the named antibiotic
  Relative MIC (log10): 2.107
[1]; [10]
  Relative MIC: 128
[1]; [11]
  Relative MIC: 128
[1]; [12]
  Relative MIC: 64
[1]; [13]
  Relative MIC: 128
[1]; [14]
  Relative MIC: 64
[1]; [15]
  Relative MIC: 64
[1]; [16]
  Relative MIC: 64
[1]; [17]
  Relative MIC: 64
[1]; [18]
  Relative MIC: 128
[1]; [19]
  Relative MIC: 128
[1]; KP-SEN, Klebsiella pneumoniae ATCC 10031, evolved line 10 versus ancestor
  Relative MIC: 128
[1]; [20]
  Relative MIC: 64
[1]; [21]
  Relative MIC: 64
[1]; Klebsiella pneumoniae ATCC 10031 (KP-SEN), evolved line 1
  Relative MIC: 64
[1]; Klebsiella pneumoniae ATCC 10031 (KP-SEN), evolved line 2
  Relative MIC: 128
[1]; Klebsiella pneumoniae ATCC 10031 (KP-SEN), evolved line 4
  Relative MIC: 64
[2]; [22]
  MIC of ancestor: 1 µg/mL
[2]; [23]
  MIC of ancestor: 1 µg/mL
[2]; [24]
  MIC: 1 µg/mL
[2]; [25]
  MIC: > 32 µg/mL
[3]; [26]
  MIC of ancestor: 0.5 µg/mL
[3]; [27]
  MIC of ancestor: 0.5 µg/mL
[3]; [28]
  MIC: 0.5 µg/mL
[3]; [29]
  MIC: > 32 µg/mL
[4]; [30]
  MIC of ancestor: 0.25 µg/mL
[4]; [31]
  MIC of ancestor: 0.25 µg/mL
[4]; [32]
  MIC: 0.25 µg/mL
[4]; [33]
  MIC: 16 µg/mL

## O=c1ccc2ncc(=O)n3c2n1C[C@H]3CN1CCC(NCc2cc3c(cn2)OCCC3)CC1 [Gepotidacin]
[1]; [34]
  Relative MIC: 2048
[1]; [35]
  Relative MIC: 2048
[1]; [5]
  Relative MIC (log10): 3.311
[1]; [36]
  Relative MIC: 1024
[1]; KP-SEN (Klebsiella pneumoniae ATCC 10031), evolved line 3 adapted to the named antibiotic
  Relative MIC (log10): 3.0103
[1]; [37]
  Relative MIC: 1024
[1]; [7]
  Relative MIC: 2048
[1]; [8]
  Relative MIC (log10): 3.311
[1]; KP-SEN (Klebsiella pneumoniae ATCC 10031), evolved line 7 adapted to the named antibiotic
  Relative MIC (log10): 3.311
[1]; [9]
  Relative MIC: 1024
[1]; [10]
  Relative MIC: 1024
[1]; [12]
  Relative MIC: 2048
[1]; [13]
  Relative MIC: 2048
[1]; KP-SEN, Klebsiella pneumoniae ATCC 10031, evolved line 3 versus ancestor
  Relative MIC: 1024
[1]; [14]
  Relative MIC: 1024
[1]; [15]
  Relative MIC: 1024
[1]; [16]
  Relative MIC: 2048
[1]; [17]
  Relative MIC: 2048
[1]; [18]
  Relative MIC: 1024
[1]; [19]
  Relative MIC: 1024
[1]; [20]
  Relative MIC: 1024
[1]; [21]
  Relative MIC: 2048
[2]; [22]
  MIC of ancestor: 4 µg/mL
[2]; P. aeruginosa LESB 58 (PA-MDR), ancestor strain, sheet fig 2a
  MIC of ancestor: 4 µg/mL
[2]; PA-MDR, Pseudomonas aeruginosa LESB 58, ancestor strain
  MIC of ancestor: 4 µg/mL
[2]; [23]
  MIC of ancestor: 4 µg/mL
[2]; [24]
  MIC: 4 µg/mL
[2]; [25]
  MIC: 4 µg/mL
[3]; [26]
  MIC of ancestor: 2 µg/mL
[3]; [27]
  MIC of ancestor: 2 µg/mL
[3]; [28]
  MIC: 2 µg/mL
[3]; [29]
  MIC: 32 µg/mL
[4]; [30]
  MIC of ancestor: 0.125 µg/mL
[4]; [31]
  MIC of ancestor: 0.125 µg/mL
[4]; [32]
  MIC: 0.125 µg/mL
[4]; [33]
  MIC: 16 µg/mL

## CN(C)c1cc(CNCC(C)(C)C)c(O)c2c1C[C@H]1C[C@H]3[C@H](N(C)C)C(O)=C(C(N)=O)C(=O)[C@@]3(O)C(O)=C1C2=O [Omadacycline]
[1]; [34]
  Relative MIC: 128
[1]; KP-SEN (Klebsiella pneumoniae ATCC 10031), evolved line 1 adapted to the named antibiotic
  Relative MIC (log10): 2.107
[1]; [35]
  Relative MIC: 128
[1]; [5]
  Relative MIC (log10): 2.107
[1]; [36]
  Relative MIC: 64
[1]; [37]
  Relative MIC: 64
[1]; [6]
  Relative MIC (log10): 2.107
[1]; [7]
  Relative MIC: 128
[1]; [8]
  Relative MIC (log10): 2.107
[1]; [9]
  Relative MIC: 64
[1]; [10]
  Relative MIC: 128
[1]; KP-SEN (Klebsiella pneumoniae ATCC 10031), evolved line 9 adapted to the named antibiotic
  Relative MIC (log10): 2.107
[1]; [11]
  Relative MIC: 128
[1]; KP-SEN ATCC 10031, evolved line 1, evolved line vs ancestor
  Relative MIC: 128
[1]; KP-SEN ATCC 10031, evolved line 2, evolved line vs ancestor
  Relative MIC: 128
[1]; KP-SEN ATCC 10031, evolved line 3, evolved line vs ancestor
  Relative MIC: 64
[1]; KP-SEN ATCC 10031, evolved line 4, evolved line vs ancestor
  Relative MIC: 64
[1]; KP-SEN ATCC 10031, evolved line 5, evolved line vs ancestor
  Relative MIC: 128
[1]; KP-SEN ATCC 10031, evolved line 6, evolved line vs ancestor
  Relative MIC: 128
[1]; KP-SEN ATCC 10031, evolved line 7, evolved line vs ancestor
  Relative MIC: 32
[1]; KP-SEN ATCC 10031, evolved line 8, evolved line vs ancestor
  Relative MIC: 64
[1]; KP-SEN ATCC 10031, evolved line 9, evolved line vs ancestor
  Relative MIC: 128
[1]; KP-SEN ATCC 10031, evolved line 10, evolved line vs ancestor
  Relative MIC: 128
[1]; [20]
  Relative MIC: 128
[1]; [21]
  Relative MIC: 32
[2]; [24]
  MIC: > 32 µg/mL
[2]; [25]
  MIC: > 32 µg/mL
[3]; Acinetobacter baumannii ATCC 17978 (AB-SEN), ancestor
  MIC of ancestor: 0.5 µg/mL
[3]; [27]
  MIC of ancestor: 0.5 µg/mL
[3]; [28]
  MIC: 0.5 µg/mL
[3]; [29]
  MIC: 16 µg/mL
[4]; Klebsiella pneumoniae ATCC 10031 (KP-SEN), ancestor
  MIC of ancestor: 1 µg/mL
[4]; [31]
  MIC of ancestor: 1 µg/mL
[4]; [32]
  MIC: 1 µg/mL
[4]; [33]
  MIC: > 32 µg/mL

## CC[C@H](C)CCCCC(=O)N[C@@H](CCN)C(=O)N[C@H](C(=O)N[C@@H](CCN)C(=O)N[C@H]1CCNC(=O)[C@H]([C@@H](C)O)NC(=O)[C@H](CCN)NC(=O)[C@H](CCN)NC(=O)[C@H](CC(C)C)NC(=O)[C@@H](Cc2ccccc2)NC(=O)[C@H](CCN)NC1=O)[C@@H](C)O [Polymyxin B] (X2-[Dab]T[Dab][Dab][Dab][dF]L[Dab][Dab]T; lactam 4-C (inferred); N-terminus assumed)
[1]; KP-MDR (Klebsiella pneumoniae ATCC 700603), evolved line 3
  Relative MIC (log10): 2.408 log10
[1]; KP-MDR (Klebsiella pneumoniae ATCC 700603), evolved line 5
  Relative MIC (log10): 2.408 log10
[1]; KP-MDR (Klebsiella pneumoniae ATCC 700603), evolved line 6
  Relative MIC (log10): 2.408 log10
[1]; KP-MDR (Klebsiella pneumoniae ATCC 700603), evolved line 9
  Relative MIC (log10): 2.408 log10
[1]; KP-MDR (Klebsiella pneumoniae ATCC 700603), evolved line 10
  Relative MIC (log10): 2.408 log10
[1]; [34]
  Relative MIC (log10): 2.408 log10
[1]; [35]
  Relative MIC (log10): 2.709 log10
[1]; [36]
  Relative MIC (log10): 2.709 log10
[1]; [10]
  Relative MIC (log10): 2.709 log10
[1]; [20]
  Relative MIC (log10): 2.709 log10
[2]; Pseudomonas aeruginosa ATCC BAA-3107 (PA-SEN)
  MIC: 1 µg/mL
[2]; Pseudomonas aeruginosa LESB 58 (PA-MDR)
  MIC: 2 µg/mL
[3]; Acinetobacter baumannii ATCC 17978 (AB-SEN)
  MIC: 1 µg/mL
[3]; Acinetobacter baumannii ATCC BAA-1605 (AB-MDR)
  MIC: 1 µg/mL
[4]; Klebsiella pneumoniae ATCC 10031 (KP-SEN)
  MIC: 2 µg/mL
[4]; Klebsiella pneumoniae ATCC 700603 (KP-MDR)
  MIC: 1 µg/mL
